# “And” between values parts separate entries of the source, which are not always exact repeats. Equal values may be shown once.
# Legend:
# HeLa cells = test: Proliferation assay, HeLa; assay type: cell-based; details: Homo sapiens, 96 h, 4 days, crystal violet, read-out: Inhibition of HeLa cell proliferation IC50
# Experimental: Cultivated tumour cells (HeLa, human cervical tumour cells, ATCC CCL-2; NCI-H460, human non-small cell lung carcinoma cells, ATCC HTB-177; DU 145, hormone-independent human prostate carcinoma cells, ATCC HTB-81; HeLa-MaTu-ADR, multidrug-resistant human cervical carcinoma cells, EPO-GmbH Berlin; Caco-2, human colorectal carcinoma cells, ATCC HTB-37; B16F10, mouse melanoma cells, ATCC CRL-6475) were plated at a density of 5,000 cells/well (DU145, HeLa-MaTu-ADR), 3,000 cells/well (NCI-H460, HeLa), 1,500 cells/well (Caco-2), or 1,000 cells/well (B16F10) in a 96-well multititer plate in 200 μL of their respective growth medium supplemented 10% fetal calf serum. After 24 hours, the cells of one plate (zero-point plate) were stained with crystal violet (see below), while the medium of the other plates was supplemented with the test substances in various concentrations (0 μM, as well as in the range of 0.0001-10 μM; the final concentration of the solvent dimethyl sulfoxide was adjusted to 0.1%) using a Hewlett-Packard HP D300 Digital Dispenser. The cells were incubated for 4 days in the presence of test substances. Cell proliferation was determined by staining the cells with crystal violet: the cells were fixed by adding 20 μl/measuring point of an 11% glutaric aldehyde solution for 15 minutes at room temperature. After three washing cycles of the fixed cells with water, the plates were dried at room temperature. The cells were stained by adding 100 μl/measuring point of a 0.1% crystal violet solution (pH 3.0). After three washing cycles of the stained cells with water, the plates were dried at room temperature. The dye was dissolved by adding 100 μl/measuring point of a 10% acetic acid solution. The extinction was determined by photometry at a wavelength of 595 nm. The change of cell number, in percent, was calculated by normalization of the measured values to the extinction values of the zero-point plate (=0%) and the extinction of the untreated ([…]) cells (=100%). The IC50 values (inhibitory concentration at 50% of maximal effect) were determined by means of a 4 parameter fit. A2780 human ovarian carcinoma cells (ECACC #93112519) and non-adherent MOLM-13 human acute myeloid leukemia cells (DSMZ ACC 554) were seeded at a density of 3,000 cell/well (A2780) or 5,000 cells/well (MOLM-13) in a 96-well multititer plate in 150 μL of growth medium supplemented 10% fetal calf serum. After 24 hours, cell viability of one plate (zero-point plate) was determined with the Cell Titre-Glo Luminescent Cell Viability Assay (Promega), while the medium of the other plates was supplemented with the test substances in various concentrations (0 μM, as well as in the range of 0.0001-10 μM; the final concentration of the solvent dimethyl sulfoxide was adjusted to 0.1%) using a Hewlett-Packard HP D300 Digital Dispenser. Cell viability was assessed after 72-hour exposure with the Cell Titre-Glo Luminescent Cell Viability Assay (Promega). IC50 values (inhibitory concentration at 50% of maximal effect) were determined by means of a 4 parameter fit on measurement data which were normalized to vehicle (DMSO) treated cells (=100%) and measurement readings taken immediately before compound exposure (=0%).
# [1] = biological target: T1, human PTEFb (CDK9/Cyclin T1) (Homo sapiens, UniProt P50750); test: Surface Plasmon Resonance PTEFb; assay type: binding; details: SPR, 37° C.; for residence time / Target residence time: 1/koff; for residence time / koff / Target residence time / Dissociation rate constant koff: * = arithmetic means; for residence time: read-out: Target residence time; for Kd: * = arithmetic means of more than one value, read-out: Equilibrium dissociation constant KD; for koff / Dissociation rate constant koff: < = below what is resolvable; for koff: read-out: Dissociation rate constant koff
# T1 construct: purchased ProQinase, Freiburg, Germany
# T1 sequence (P50750 whole entry): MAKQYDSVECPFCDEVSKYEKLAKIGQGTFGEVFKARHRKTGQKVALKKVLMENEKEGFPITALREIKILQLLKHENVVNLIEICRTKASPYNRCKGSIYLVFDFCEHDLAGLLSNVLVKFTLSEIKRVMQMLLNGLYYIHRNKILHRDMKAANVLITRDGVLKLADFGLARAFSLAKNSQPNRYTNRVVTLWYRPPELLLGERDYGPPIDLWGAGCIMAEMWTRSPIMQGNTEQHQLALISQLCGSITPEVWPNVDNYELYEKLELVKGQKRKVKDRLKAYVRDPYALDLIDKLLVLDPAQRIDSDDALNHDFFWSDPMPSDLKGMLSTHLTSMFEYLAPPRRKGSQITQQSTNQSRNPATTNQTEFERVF
# T1 sequence (O60563 whole entry partner): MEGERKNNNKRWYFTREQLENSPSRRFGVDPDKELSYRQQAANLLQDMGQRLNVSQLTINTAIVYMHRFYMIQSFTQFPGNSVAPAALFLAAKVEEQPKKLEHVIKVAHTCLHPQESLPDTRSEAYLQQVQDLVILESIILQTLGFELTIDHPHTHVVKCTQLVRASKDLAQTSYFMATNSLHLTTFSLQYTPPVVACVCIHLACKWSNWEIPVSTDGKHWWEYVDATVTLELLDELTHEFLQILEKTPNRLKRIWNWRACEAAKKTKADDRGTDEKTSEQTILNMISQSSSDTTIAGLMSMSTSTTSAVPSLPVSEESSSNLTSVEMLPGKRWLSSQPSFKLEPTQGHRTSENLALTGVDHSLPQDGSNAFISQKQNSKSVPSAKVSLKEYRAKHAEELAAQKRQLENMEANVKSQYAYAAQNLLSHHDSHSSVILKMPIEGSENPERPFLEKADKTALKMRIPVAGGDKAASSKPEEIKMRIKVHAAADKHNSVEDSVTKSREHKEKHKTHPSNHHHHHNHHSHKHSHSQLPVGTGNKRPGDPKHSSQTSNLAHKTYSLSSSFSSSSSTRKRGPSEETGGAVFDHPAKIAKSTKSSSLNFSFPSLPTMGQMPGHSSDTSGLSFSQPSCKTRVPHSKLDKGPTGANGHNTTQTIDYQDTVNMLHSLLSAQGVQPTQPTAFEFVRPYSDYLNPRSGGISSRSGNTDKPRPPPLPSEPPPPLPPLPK
# From the text: 8. Surface Plasmon Resonance PTEFb
# The term “surface plasmon resonance”, as used herein, refers to an optical phenomenon that allows for the analysis of the reversible associations of biological molecules in real time within a biosensor matrix, for example using the Biacore® system (GE Healthcare Biosciences, Uppsala, Sweden). Biacore® uses the optical properties of surface plasmon resonance (SPR) to detect alterations in the refractive index of a buffer, which changes as molecules in solution interact with the target immobilized on the surface. In brief, proteins are covalently bound to the dextran matrix at a known concentration and a ligand for the protein is injected through the dextran matrix. Near infrared light, directed onto the opposite side of the sensor chip surface is reflected and also induces an evanescent wave in the gold film, which in turn, causes an intensity dip in the reflected light at a particular angle known as the resonance angle. If the refractive index of the sensor chip surface is altered (e.g. by compound binding to the bound protein) a shift occurs in the resonance angle. This angle shift can be measured.
# The term “KD”, as used herein, is intended to refer to the equilibrium dissociation constant of a particular compound/target protein complex.
# The term “koff”, as used herein, is intended to refer to the off-rate, i.e. the dissociation rate constant of a particular compound/target protein complex.
# The term “target residence time”, as used herein, is intended to refer to the inverse of the rate of dissociation rate constant (1/koff) of a particular compound/target protein complex.
# The ability of the compounds according to the invention to bind human PTEFb may be determined using surface plasmon resonance (SPR). KD values and koff values may be measured using a Biacore® T200 instrument (GE Healthcare, Uppsala, Sweden).
# For SPR measurements, recombinant human PTEFb (CDK9/Cyclin T1 recombinant human active protein kinase purchased from ProQinase, Freiburg, Germany) is immobilized using standard amine coupling (Johnsson B et al, Anal Biochem. 1991 Nov. 1; 198(2):268-77). Briefly, carboxymethylated dextran biosensor chips (CM7, GE Healthcare) are activated with N-ethyl-N′-(3-dimethylaminopropyl)-carbodiimide hydrochloride (EDC) and N-hydroxysuccinimide (NHS) according to the supplier's instructions. Human PTEFb is diluted in 1×HBS-EP+ (GE Healthcare) and injected on the activated chip surface. Subsequently, a 1:1 solution of 1 M ethanolamine-HCl (GE Healthcare) and 1×HBS-EP is injected to block unreacted groups, resulting in approximately 4000 response units (RU) of immobilized protein. A reference surface is generated by treatment with NHS-EDC and ethanolamine-HCl. Compounds are dissolved in 100% dimethylsulfoxide (DMSO, Sigma-Aldrich, Germany) to a concentration of 10 mM and subsequently diluted in running buffer (1×HBS-EP+pH 7.4 [generated from HBS-EP+ Buffer 10× (GE Healthcare): 0.1 M HEPES, 1.5 M NaCl, 30 mM EDTA and 0.5% v/v Surfactant P20], 1% v/v DMSO). For kinetic measurements, serial dilutions of compound (0.78 nM up to 25 nM) are injected over immobilized protein. Binding kinetics is measured at 37° C. with a flow rate of 100 μl/min in running buffer. Compound concentrations are injected for 70 s followed by a dissociation time of 1100 s. The resulting sensorgrams are double-referenced against the reference surface as well as against blank injections.
# The double-referenced sensorgrams are fit to a simple reversible Langmuir 1:1 reaction mechanism as implemented in the Biacore® T200 evaluation software 2.0 (GE Healthcare). In cases were full compound dissociation has not occurred at the end of the dissociation phase, the Rmax parameter (response at saturation) is fit as local variable. In all other cases, Rmax is fit as global variable.
SMILES,IC50 (HeLa cells) [nM],Kd [1],further results
"CS(=N)(=O)Cc1cc2nc(c1)OCCCCOc1cc(ccc1F)-c1cc(ncc1F)N2 (racemic) [Example 2, (rac)-3,20-difluoro-10-[(S-methylsulfonimidoyl)methyl]-13,18-dioxa-5,7,24-triazatetracyclo[17.3.1.1^2,6.1^8,12]pentacosa-1(23),2(25),3,5,8(24),9,11,19,21-nonaene]",90,1.2 nM,residence time [1]: 75 min; koff [1]: 0.00022 s⁻¹
"CC(C)(C)OC(=O)N=S(C)(=O)Cc1cc2cc(c1)OCCCCOc1cc(ccc1F)-c1nc(ncc1F)N2 (racemic) [Example 3, (rac)-tert-butyl [{[3,20-difluoro-13,18-dioxa-5,7,25-triazatetracyclo[17.3.1.1^2,6.1^8,12]pentacosa-1(23),2(25),3,5,8(24),9,11,19,21-nonaen-10-yl]methyl}(methyl)oxido-λ^6-sulfanylidene]carbamate]",244,–,–
"CC(C)(C)OC(=O)N=S(C)(=O)Cc1cc2cc(c1)OCCCCCOc1cc(ccc1F)-c1nc(ncc1F)N2 (racemic) [Example 5, (rac)-tert-butyl [{[3,21-difluoro-13,19-dioxa-5,7,26-triazatetracyclo[18.3.1.1^2,6.1^8,12]hexacosa-1(24),2(26),3,5,8(25),9,11,20,22-nonaen-10-yl]methyl}(methyl)oxido-λ^6-sulfanylidene]carbamate]",964,–,–
"CS(=N)(=O)Cc1cc2cc(c1)OCCCCCOc1cc(ccc1F)-c1nc(ncc1F)N2 (racemic) [Example 6, (rac)-3,21-difluoro-10-[(S-methylsulfonimidoyl)methyl]-13,19-dioxa-5,7,26-triazatetracyclo[18.3.1.1^2,6.1^8,12]hexacosa-1(24),2(26),3,5,8(25),9,11,20,22-nonaene]",199,–,–
"CS(=N)(=O)Cc1cc2cc(c1)OCCCCOc1c(F)ccc(c1F)-c1nc(ncc1F)N2 (racemic) [Example 8, (rac)-3,20,23-trifluoro-10-[(S-methylsulfonimidoyl)methyl]-13,18-dioxa-5,7,25-triazatetracyclo[17.3.1.1^2,6.1^8,12]pentacosa-1(23),2(25),3,5,8(24),9,11,19,21-nonaene]",177,–,–
"CS(=N)(=O)Cc1cc2cc(c1)OCCCOc1cc(ccc1F)-c1nc(ncc1F)N2 (racemic) [Example 10, (rac)-3,19-difluoro-10-[(S-methylsulfonimidoyl)methyl]-13,17-dioxa-5,7,24-triazatetracyclo[16.3.1.1^2,6.1^8,12]tetracosa-1(22),2(24),3,5,8(23),9,11,18,20-nonaene]",128,–,–
"CC1CCCOc2cc(ccc2F)-c2cc(ncc2F)Nc2cc(CS(C)(=O)=O)cc(n2)O1 (racemic) [Example 28, 3,20-difluoro-14-methyl-10-[(methylsulfonyl)methyl]-13,18-dioxa-5,7,24-triazatetracyclo[17.3.1.1^2,6.1^8,12]pentacosa-1(23),2(25),3,5,8(24),9,11,19,21-nonaene]",–,0.092 nM and 0.091 nM and 0.12 nM,–
"CC1CCCOc2cc(ccc2F)-c2cc(ncc2F)Nc2cc(CS(C)(=N)=O)cc(n2)O1 (single isomer, unassigned) [Example 16, 3,20-difluoro-14-methyl-10-[(S-methylsulfonimidoyl)methyl]-13,18-dioxa-5,7,24-triazatetracyclo[17.3.1.1^2,6.1^8,12]pentacosa-1(23),2(25),3,5,8(24),9,11,19,21-nonaene]",–,–,Target residence time [1]: > 208 min and 131 min; Dissociation rate constant koff [1]: < 8e-05 s⁻¹ and 0.00013 s⁻¹
"CC1CCCOc2cc(ccc2F)-c2cc(ncc2F)Nc2cc(CS(C)(=N)=O)cc(n2)O1 (single isomer, unassigned) [Example 17, 3,20-difluoro-14-methyl-10-[(S-methylsulfonimidoyl)methyl]-13,18-dioxa-5,7,24-triazatetracyclo[17.3.1.1^2,6.1^8,12]pentacosa-1(23),2(25),3,5,8(24),9,11,19,21-nonaene]",–,0.077 nM,residence time [1]: > 208 min; koff [1]: < 8e-05 s⁻¹
"CC1CCCCOc2cc(ccc2F)-c2cc(ncc2F)Nc2cc(CS(C)(=N)=O)cc(n2)O1 (single isomer, unassigned) [Example 21, 3,21-difluoro-14-methyl-10-[(S-methylsulfonimidoyl)methyl]-13,19-dioxa-5,7,25-triazatetracyclo[18.3.1.1^2,6.1^8,12]hexacosa-1(24),2(26),3,5,8(25),9,11,20,22-nonaene]",–,1 nM,Target residence time [1]: 10* min; Dissociation rate constant koff [1]: 1.6E−3* 1/s
"CC1CCCCOc2cc(ccc2F)-c2cc(ncc2F)Nc2cc(CS(C)(=N)=O)cc(n2)O1 (single isomer, unassigned) [Example 22, 3,21-difluoro-14-methyl-10-[(S-methylsulfonimidoyl)methyl]-13,19-dioxa-5,7,25-triazatetracyclo[18.3.1.1^2,6.1^8,12]hexacosa-1(24),2(26),3,5,8(25),9,11,20,22-nonaene]",–,0.19 nM,Target residence time [1]: 43* min; Dissociation rate constant koff [1]: 3.9E−4* 1/s
